Assay results reported in ChEMBL document CHEMBL1121659 (J Med Chem, 1981).
The source made the active and inactive calls. The rule behind the calls is not given here.

Legend:
[1] = system: Mus musculus; experiment: Compound was evaluated for the dose required for protection against scMET-induced seizures after 4 hours of intraperitoneal administration; Inactive; format: functional, organism-based
[2] = system: Mus musculus; experiment: Compound was evaluated for the neuro toxicity up to 4 hours after doses of <=300 mg/kg administered intraperitoneally; No toxicity; format: organism-based; settings: in vivo, ip
[3] = system: Mus musculus; experiment: Compound was evaluated for the dose required for protection against MES-induced seizures after 4 hours of intraperitoneal administration; Inactive; format: functional, organism-based
[4] = system: Mus musculus; experiment: Compound was evaluated for the dose required for protection against MES-induced seizures after 4 hours of intraperitoneal administration at the doses< = 0.77-0.90 mM/kg; Inactive; format: functional, organism-based
[5] = system: Mus musculus; experiment: Compound was evaluated for the dose required for protection against scMET-induced seizures after 4 hours of intraperitoneal administration; format: functional
[6] = system: Mus musculus; experiment: Compound was evaluated for the dose required for protection against MES-induced seizures after 4 hours of intraperitoneal administration; format: functional
[7] = system: Mus musculus; experiment: Compound was evaluated for the dose required for protection against scMET-induced seizures after 4 hours of intraperitoneal administration at the doses< = 0.77-0.90 mM/kg; Inactive; format: functional, organism-based
[8] = Compound was evaluated for the biliary excretion in the anesthetized rats in 6 hours after intravenous doses 1 mg/kg; format: ADME, organism-based; set-up: dose 1 mg/kg, route intravenous; settings: rat, bile, read-out: Excretion
[9] = Compound was evaluated for the biological half-life in rat after a dose of 10 mg/kg given intravenously; format: ADME, organism-based; set-up: dose 10 mg/kg, route intravenous; settings: in vivo, iv
[10] = system: Mus musculus; experiment: Compound was evaluated for the biological half-life in mouse after a dose of 40 mg/kg given intraperitoneally; settings: in vivo, ip
[11] = Compound was evaluated for the biliary excretion in the anesthetized rats in 6 hours after intravenous doses 10 mg/kg; format: ADME, organism-based; set-up: dose 10 mg/kg, route intravenous; settings: rat, bile, read-out: Excretion

| SMILES | Activity [1] | Neurotoxicity [2] | Activity [3] | Activity [5] | Activity [6] | other results |
| --- | --- | --- | --- | --- | --- | --- |
| O=C1NC(=O)C(c2ccc(C(F)(F)F)cc2)(c2cccc(C(F)(F)F)c2)N1 (configuration not stated) | inactive | No toxicity | inactive |  |  |  |
| O=C1NC(=O)C(c2cccc(C(F)(F)F)c2)(c2cccc(C(F)(F)F)c2)N1 |  | No toxicity |  | 2.6 mmol/kg |  | Activity [4]: inactive |
| O=C1NC(=O)C(c2ccccc2)(c2ccc(C(F)(F)F)cc2)N1 (configuration not stated) |  | No toxicity |  |  | 0.94 mmol/kg | Activity [7]: inactive |
| O=C1NC(=O)C(c2ccccc2)(c2ccccc2)N1 [PHENYTOIN] |  |  |  | inactive | 0.038 mmol/kg | dose excreted at 6 h [8]: 54%; half-life [9]: 30 min; T1/2 [10]: 990 min; dose excreted at 6 h [11]: 28% |
| Cc1cccc(C2(c3cccc(C(F)(F)F)c3)NC(=O)NC2=O)c1 (stereo in doubt; 9) | inactive |  | inactive |  |  |  |
